These results are taken from ChEMBL document CHEMBL1146847, “Design and synthesis of potent, non-peptidic inhibitors of HPTPbeta” (Bioorg Med Chem Lett, 2006).

SMILES strings stand for the structures. Some results are limits rather than exact numbers.

Experiment [1] deals with Receptor-type tyrosine-protein phosphatase beta (Homo sapiens, UniProt P23467).
For experiment [2], the target named is T1, Tyrosine-protein phosphatase non-receptor type 1 (Homo sapiens, UniProt P18031).
T1 sequence (P18031 whole entry): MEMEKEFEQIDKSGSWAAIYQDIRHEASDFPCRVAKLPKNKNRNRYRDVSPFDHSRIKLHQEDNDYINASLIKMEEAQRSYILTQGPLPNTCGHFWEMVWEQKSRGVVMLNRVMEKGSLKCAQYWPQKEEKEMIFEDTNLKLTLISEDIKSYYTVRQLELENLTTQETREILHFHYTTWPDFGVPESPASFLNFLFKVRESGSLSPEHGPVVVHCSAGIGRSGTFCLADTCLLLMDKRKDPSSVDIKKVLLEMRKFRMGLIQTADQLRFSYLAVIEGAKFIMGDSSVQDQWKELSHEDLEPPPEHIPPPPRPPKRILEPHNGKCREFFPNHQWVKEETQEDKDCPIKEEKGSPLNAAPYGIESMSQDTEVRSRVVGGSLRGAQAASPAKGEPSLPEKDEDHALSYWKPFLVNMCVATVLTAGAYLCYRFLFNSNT
Nature of the experiment: Inhibition of PTP1B.

The target in experiment [3] is T2, Low molecular weight phosphotyrosine protein phosphatase (Homo sapiens, UniProt P24666).
T2 sequence (P24666 whole entry): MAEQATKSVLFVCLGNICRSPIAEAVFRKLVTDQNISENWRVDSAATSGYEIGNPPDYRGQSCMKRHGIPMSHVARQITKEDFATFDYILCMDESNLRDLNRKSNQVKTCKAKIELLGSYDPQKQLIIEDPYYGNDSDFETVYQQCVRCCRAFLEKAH
Nature of the experiment: Inhibition of HCPTPA.

Experiment [4] concerns the target Receptor-type tyrosine-protein phosphatase epsilon (Homo sapiens, UniProt P23469). The experiment is described as follows: Inhibition of HPTP epsilon.
Experiment [5] deals with T3, Receptor-type tyrosine-protein phosphatase F (Homo sapiens, UniProt P10586). The experiment is described as follows: Inhibition of LAR1.
The target of experiment [6] is T3, Receptor-type tyrosine-protein phosphatase F. The experiment is described as follows: Inhibition of LAR2.
Experiment [7] deals with Receptor-type tyrosine-protein phosphatase gamma (Homo sapiens, UniProt P23470). The experiment is described as follows: Inhibition of PTP gamma.
Experiment [8] concerns the target T4, Tyrosine-protein phosphatase non-receptor type 2 (Homo sapiens, UniProt P17706).
T4 sequence (P17706 whole entry): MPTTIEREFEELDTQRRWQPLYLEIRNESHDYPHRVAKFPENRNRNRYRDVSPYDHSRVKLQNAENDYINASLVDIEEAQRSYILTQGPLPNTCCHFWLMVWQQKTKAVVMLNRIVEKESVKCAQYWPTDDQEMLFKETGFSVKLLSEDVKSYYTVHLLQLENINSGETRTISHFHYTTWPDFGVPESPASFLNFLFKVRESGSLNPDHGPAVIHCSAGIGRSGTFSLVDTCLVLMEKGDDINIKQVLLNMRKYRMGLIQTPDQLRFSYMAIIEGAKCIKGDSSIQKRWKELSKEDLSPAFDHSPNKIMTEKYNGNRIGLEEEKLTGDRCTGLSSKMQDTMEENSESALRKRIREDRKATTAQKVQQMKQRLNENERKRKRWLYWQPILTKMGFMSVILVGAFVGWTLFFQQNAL
Nature of the experiment: Inhibition of TCPTP38.

In experiment [9] the target is Receptor-type tyrosine-protein phosphatase mu (Homo sapiens, UniProt P28827). The experiment is described as follows: Inhibition of HPTP mu.
In experiment [10] the target is T5, Receptor-type tyrosine-protein phosphatase C (Homo sapiens, UniProt P08575).
T5 sequence (P08575 whole entry): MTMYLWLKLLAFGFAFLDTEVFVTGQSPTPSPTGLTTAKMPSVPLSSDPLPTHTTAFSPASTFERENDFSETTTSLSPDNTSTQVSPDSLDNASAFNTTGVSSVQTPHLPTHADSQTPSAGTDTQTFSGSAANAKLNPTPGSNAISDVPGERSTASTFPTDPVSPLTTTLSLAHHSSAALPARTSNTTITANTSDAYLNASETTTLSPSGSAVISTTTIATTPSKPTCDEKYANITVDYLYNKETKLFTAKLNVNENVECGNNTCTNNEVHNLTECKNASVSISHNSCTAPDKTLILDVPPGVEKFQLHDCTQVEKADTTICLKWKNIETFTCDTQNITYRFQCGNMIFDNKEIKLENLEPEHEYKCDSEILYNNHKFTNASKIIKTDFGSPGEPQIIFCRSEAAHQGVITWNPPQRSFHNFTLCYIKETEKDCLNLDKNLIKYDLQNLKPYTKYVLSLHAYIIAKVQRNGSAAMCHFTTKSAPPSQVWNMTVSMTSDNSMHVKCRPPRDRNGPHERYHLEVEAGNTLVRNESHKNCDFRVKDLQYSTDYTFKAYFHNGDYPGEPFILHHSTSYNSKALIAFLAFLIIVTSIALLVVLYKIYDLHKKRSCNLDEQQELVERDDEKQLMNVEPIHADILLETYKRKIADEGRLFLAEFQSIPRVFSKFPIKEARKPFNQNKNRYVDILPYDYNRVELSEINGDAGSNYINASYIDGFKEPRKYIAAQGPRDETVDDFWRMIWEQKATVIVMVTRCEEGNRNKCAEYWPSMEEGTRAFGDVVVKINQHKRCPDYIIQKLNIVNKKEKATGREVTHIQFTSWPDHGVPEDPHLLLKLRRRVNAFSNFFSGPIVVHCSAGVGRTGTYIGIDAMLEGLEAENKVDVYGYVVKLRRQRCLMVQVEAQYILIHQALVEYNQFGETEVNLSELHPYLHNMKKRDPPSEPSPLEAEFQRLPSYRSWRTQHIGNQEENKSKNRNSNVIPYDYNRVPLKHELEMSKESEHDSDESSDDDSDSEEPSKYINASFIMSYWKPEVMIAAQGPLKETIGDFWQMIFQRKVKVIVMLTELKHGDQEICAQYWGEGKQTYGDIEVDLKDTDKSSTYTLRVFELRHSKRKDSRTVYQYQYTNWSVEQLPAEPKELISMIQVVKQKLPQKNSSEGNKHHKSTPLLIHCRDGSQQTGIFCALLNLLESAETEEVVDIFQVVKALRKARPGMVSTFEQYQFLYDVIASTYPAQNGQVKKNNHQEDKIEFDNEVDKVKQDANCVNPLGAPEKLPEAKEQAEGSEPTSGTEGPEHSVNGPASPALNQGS
The experiment is described as follows: Inhibition of CD45.

Experiment [11] deals with T4, Tyrosine-protein phosphatase non-receptor type 2. Nature of the experiment: Inhibition of TCPTP.
For experiment [12], the target named is Receptor-type tyrosine-protein phosphatase alpha (Homo sapiens, UniProt P18433). Nature of the experiment: Inhibition HPTPA.

Receptor-type tyrosine-protein phosphatase beta, sequence (P23467 whole entry): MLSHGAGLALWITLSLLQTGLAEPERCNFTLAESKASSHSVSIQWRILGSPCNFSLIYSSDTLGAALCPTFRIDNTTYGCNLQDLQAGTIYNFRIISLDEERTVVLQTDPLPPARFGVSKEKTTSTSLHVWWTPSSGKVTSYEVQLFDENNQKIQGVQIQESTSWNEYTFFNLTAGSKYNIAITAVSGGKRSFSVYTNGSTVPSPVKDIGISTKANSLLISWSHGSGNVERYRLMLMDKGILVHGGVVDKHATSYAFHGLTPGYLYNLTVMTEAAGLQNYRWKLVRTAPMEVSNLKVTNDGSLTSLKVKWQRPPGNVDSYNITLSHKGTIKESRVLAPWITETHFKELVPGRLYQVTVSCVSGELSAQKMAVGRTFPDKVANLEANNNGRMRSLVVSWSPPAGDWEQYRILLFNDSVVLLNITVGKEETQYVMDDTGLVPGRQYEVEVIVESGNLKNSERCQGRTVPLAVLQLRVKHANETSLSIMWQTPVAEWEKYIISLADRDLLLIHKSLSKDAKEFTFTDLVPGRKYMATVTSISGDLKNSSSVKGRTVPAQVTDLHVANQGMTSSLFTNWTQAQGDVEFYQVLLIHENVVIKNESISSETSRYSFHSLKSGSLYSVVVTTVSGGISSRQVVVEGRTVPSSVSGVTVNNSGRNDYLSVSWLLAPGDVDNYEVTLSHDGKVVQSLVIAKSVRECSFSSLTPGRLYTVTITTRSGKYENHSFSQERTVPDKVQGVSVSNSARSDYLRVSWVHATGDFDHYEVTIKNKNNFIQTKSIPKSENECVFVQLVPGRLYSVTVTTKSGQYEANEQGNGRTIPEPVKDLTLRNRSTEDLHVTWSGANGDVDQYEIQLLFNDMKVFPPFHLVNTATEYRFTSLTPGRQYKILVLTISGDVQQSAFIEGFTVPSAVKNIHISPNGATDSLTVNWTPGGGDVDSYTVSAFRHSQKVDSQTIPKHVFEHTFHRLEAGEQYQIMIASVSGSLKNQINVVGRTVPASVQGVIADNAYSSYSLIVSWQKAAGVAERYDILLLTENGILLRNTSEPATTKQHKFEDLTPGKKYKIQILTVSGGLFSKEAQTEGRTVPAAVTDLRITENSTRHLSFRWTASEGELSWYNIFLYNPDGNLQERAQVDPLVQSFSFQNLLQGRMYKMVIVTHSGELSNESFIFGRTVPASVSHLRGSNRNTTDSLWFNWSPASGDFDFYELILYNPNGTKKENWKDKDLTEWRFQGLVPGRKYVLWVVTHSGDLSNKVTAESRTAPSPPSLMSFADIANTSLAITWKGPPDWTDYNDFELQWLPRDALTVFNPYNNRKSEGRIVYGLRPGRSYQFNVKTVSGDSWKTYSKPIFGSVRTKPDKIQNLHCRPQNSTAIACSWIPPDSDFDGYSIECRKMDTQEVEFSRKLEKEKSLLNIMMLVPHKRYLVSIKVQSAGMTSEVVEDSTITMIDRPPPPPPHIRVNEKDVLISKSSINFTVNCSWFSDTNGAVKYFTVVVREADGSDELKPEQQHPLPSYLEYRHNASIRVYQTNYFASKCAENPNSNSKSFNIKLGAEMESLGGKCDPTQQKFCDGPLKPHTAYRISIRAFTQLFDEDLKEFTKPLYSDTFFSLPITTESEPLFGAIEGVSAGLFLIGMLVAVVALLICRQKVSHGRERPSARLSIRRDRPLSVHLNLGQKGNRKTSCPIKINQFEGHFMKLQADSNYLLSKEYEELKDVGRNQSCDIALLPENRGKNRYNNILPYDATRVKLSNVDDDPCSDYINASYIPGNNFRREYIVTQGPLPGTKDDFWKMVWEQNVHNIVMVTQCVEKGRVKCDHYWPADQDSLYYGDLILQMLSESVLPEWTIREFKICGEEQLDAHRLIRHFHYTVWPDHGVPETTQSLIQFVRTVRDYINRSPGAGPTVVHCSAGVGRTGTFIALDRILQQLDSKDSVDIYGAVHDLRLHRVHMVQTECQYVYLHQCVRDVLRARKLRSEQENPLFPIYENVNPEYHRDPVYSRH
Receptor-type tyrosine-protein phosphatase epsilon, sequence (P23469 whole entry): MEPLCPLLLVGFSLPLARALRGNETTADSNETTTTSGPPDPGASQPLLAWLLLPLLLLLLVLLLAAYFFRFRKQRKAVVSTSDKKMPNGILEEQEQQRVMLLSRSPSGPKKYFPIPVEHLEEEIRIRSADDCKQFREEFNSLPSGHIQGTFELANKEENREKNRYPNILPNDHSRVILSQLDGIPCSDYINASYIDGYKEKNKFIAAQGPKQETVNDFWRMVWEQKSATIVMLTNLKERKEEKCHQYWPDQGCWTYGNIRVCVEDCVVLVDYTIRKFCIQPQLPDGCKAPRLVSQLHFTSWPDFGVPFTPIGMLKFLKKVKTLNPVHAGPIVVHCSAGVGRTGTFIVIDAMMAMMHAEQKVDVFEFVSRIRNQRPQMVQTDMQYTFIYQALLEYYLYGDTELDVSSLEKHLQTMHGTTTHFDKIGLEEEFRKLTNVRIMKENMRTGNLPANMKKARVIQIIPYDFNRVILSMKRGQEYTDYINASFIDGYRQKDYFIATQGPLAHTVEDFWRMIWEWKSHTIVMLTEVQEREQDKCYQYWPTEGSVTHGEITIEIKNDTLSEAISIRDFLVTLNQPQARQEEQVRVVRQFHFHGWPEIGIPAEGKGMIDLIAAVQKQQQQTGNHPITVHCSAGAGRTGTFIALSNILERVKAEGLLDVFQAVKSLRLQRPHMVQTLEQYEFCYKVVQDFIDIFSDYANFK
T3 sequence (P10586 whole entry): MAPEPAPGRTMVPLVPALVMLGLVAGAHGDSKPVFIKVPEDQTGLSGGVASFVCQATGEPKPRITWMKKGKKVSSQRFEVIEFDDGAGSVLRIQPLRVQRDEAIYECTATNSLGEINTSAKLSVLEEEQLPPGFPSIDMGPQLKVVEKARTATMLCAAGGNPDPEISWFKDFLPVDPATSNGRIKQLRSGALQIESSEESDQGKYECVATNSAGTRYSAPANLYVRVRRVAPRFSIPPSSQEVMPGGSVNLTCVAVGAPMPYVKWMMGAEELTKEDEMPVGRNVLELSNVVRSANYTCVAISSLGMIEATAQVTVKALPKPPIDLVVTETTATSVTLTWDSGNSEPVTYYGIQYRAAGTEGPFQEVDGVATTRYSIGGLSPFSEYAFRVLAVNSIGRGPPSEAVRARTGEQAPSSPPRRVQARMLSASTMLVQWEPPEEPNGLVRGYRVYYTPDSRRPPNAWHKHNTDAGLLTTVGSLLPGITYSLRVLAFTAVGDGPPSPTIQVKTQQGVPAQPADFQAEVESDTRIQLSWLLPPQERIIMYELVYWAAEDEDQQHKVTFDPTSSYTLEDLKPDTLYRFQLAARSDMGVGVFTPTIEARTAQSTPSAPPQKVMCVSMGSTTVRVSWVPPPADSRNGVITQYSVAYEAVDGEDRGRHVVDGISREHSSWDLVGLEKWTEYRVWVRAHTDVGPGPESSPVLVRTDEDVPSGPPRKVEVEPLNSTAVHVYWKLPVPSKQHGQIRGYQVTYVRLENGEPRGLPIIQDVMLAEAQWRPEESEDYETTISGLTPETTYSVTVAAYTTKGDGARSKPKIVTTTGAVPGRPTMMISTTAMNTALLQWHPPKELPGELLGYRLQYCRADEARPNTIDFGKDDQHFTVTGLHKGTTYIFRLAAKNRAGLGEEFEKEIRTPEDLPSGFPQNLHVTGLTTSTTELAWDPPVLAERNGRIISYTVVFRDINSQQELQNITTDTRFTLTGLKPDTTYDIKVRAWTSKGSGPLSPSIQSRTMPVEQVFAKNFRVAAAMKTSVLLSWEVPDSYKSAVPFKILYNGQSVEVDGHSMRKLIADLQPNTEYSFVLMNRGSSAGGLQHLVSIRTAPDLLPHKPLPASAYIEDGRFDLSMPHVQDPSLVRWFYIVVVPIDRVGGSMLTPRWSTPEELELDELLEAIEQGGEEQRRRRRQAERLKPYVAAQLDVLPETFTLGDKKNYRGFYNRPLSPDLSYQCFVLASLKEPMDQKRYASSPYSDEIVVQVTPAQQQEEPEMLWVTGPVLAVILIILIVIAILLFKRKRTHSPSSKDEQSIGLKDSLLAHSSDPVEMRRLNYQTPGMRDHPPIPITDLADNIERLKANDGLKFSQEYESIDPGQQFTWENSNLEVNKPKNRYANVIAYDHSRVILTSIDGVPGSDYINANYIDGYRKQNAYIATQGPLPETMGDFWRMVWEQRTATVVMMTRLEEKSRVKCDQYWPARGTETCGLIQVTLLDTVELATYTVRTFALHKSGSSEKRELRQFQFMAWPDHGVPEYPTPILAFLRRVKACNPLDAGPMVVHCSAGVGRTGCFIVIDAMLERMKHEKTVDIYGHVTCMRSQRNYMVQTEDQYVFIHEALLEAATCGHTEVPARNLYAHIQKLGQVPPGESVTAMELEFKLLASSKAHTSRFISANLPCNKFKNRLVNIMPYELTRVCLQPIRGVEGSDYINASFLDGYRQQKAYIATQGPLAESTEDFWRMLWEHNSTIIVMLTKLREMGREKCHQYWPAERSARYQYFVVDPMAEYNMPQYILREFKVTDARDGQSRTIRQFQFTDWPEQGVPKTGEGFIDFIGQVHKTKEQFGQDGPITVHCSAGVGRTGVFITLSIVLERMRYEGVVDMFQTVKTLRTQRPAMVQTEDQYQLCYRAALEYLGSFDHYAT

In experiment [1], `COC(=O)C(Cc1ccc(NS(=O)(=O)O)cc1)C(=O)OC` registered an IC50 of 1000 nM.
On to `COC(=O)C(Cc1ccc(NS(=O)(=O)O)cc1)(Cc1ccc(C(=O)O)cc1)C(=O)OC`, for which, in experiment [1], the 50% inhibitory concentration (IC50) was 140 nM.
Compound `COc1ccc(CC(Cc2ccc(NS(=O)(=O)O)cc2)(c2nc(C)no2)c2nc(C)no2)cc1` displayed a half-inhibitory concentration (IC50) in [1] of 340 nM.
Consider `COC(=O)C(Cc1ccc(NS(=O)(=O)O)cc1)(Cc1cccc(S(N)(=O)=O)c1)C(=O)OC`, for which, in experiment [1], the IC50 amounted to 300 nM.
`CCOC(=O)C(Cc1ccc(NS(=O)(=O)O)cc1)(NC(=O)OC(C)(C)C)C(=O)OC` (configuration not stated) came in with a concentration for half-maximal inhibition (IC50) in experiment [1] of 450 nM.
For `COC(=O)C(CCCS(=O)(=O)c1ccccc1)(Cc1ccc(NS(=O)(=O)O)cc1)C(=O)OC`, half-maximal inhibition in experiment [1] (IC50) was put at 150 nM.
In experiment [1], `COc1cccc(CC(Cc2ccc(NS(=O)(=O)O)cc2)(c2nc(C)no2)c2nc(C)no2)c1` gave a half-inhibitory concentration (IC50) of 230 nM.
Take `CCOC(=O)C(Cc1ccc(NS(=O)(=O)O)cc1)(NC(=O)OCc1ccccc1)C(=O)OC` (configuration not stated): the 50% inhibitory concentration (IC50) is 12800 nM in experiment [2]; 82200 nM in [3]; more than 500000 nM in experiment [4]; 227000 nM in experiment [5]; 472000 nM in [6]; 196000 nM in experiment [7]. Also, the 50% inhibitory concentration (IC50) was 78000 nM in experiment [8], more than 500000 nM in experiment [9], 280000 nM in experiment [10] and 400 nM in experiment [1].
`COC(=O)C(Cc1ccncc1)(Cc1ccc(NS(=O)(=O)O)cc1)C(=O)OC`: in experiment [1], the concentration for half-maximal inhibition (IC50) stood at 570 nM.
In turn, `CCOC(=O)C(CCNC(=O)OC(C)(C)C)(Cc1ccc(NS(=O)(=O)O)cc1)C(=O)OC` (configuration not stated) yielded an IC50 in experiment [1] of 90 nM.
The compound `COC(=O)C(CCCSc1nnnn1-c1ccccc1)(Cc1ccc(NS(=O)(=O)O)cc1)C(=O)OC` yielded an IC50 in [1] of 200 nM.
For the compound `COC(=O)C(Cc1ccc(NS(=O)(=O)O)cc1)(Cc1ccc(OC)cc1)C(=O)OC`, inhibition in experiment [1] was half-maximal at 390 nM (IC50).
Same read-out and setting: in the case of `COC(=O)C(Cc1ccc(NS(=O)(=O)O)cc1)(Cc1cccc(OC)c1)C(=O)OC` it was 330 nM.
Still for that read-out and setting: in the case of `Cc1noc(C(Cc2ccc(NS(=O)(=O)O)cc2)(Cc2ccc(NS(=O)(=O)O)cc2)c2nc(C)no2)n1` it was 80 nM; in that of `COC(=O)C(Cc1ccc(NS(=O)(=O)O)cc1)(Cc1ccc(NS(=O)(=O)O)cc1)C(=O)OC`, 60 nM; in that of `COC(=O)C(Cc1ccc(NS(=O)(=O)O)cc1)(Cc1cccc(NS(=O)(=O)O)c1)C(=O)OC`, 100 nM.
As to `COC(=O)CCCC(Cc1ccc(NS(=O)(=O)O)cc1)(C(=O)OC)C(=O)OC`, the IC50 in experiment [1] is 380 nM.
The compound `COC(=O)C(CCCS(=O)(=O)c1nnnn1-c1ccccc1)(Cc1ccc(NS(=O)(=O)O)cc1)C(=O)OC` registered a concentration for half-maximal inhibition (IC50) in [1] of 80 nM.
`COC(=O)C(CCCS(C)(=O)=O)(Cc1ccc(NS(=O)(=O)O)cc1)C(=O)OC`: half-maximal inhibition in experiment [1] (IC50) required 420 nM.
On to `COC(=O)C(Cc1ccc(NS(=O)(=O)O)cc1)(Cc1ccc(S(N)(=O)=O)cc1)C(=O)OC`, for which inhibition in experiment [1] was half-maximal at 430 nM (IC50).
Consider `CCOC(=O)CC(Cc1ccc(NS(=O)(=O)O)cc1)(C(=O)OC)C(=O)OC`, for which the 50% inhibitory concentration (IC50) in [2] is 16200 nM; in experiment [3] it was 4800 nM; in experiment [4], more than 500000 nM; in [5], 288000 nM; in experiment [6], more than 500000 nM; in [7], 200000 nM. The IC50 in [8] was 109000 nM; in experiment [9], more than 500000 nM; in experiment [10], 126000 nM; in experiment [1], 230 nM.
`COC(=O)C(Cc1ccccc1)(Cc1ccc(NS(=O)(=O)O)cc1)C(=O)OC`: the values for the half-inhibitory concentration (IC50) in experiment [2], in [11] and in [12] were 6100 nM, 19400 nM and 900 nM, respectively.
In experiment [1], `COC(=O)c1cccc(CC(Cc2ccc(NS(=O)(=O)O)cc2)(C(=O)OC)C(=O)OC)c1` displayed an IC50 of 290 nM.
Take `Cc1noc(C(Cc2ccc(NS(=O)(=O)O)cc2)(Cc2cccc(C#N)c2)c2nc(C)no2)n1`: the half-inhibitory concentration (IC50) in experiment [1] was 210 nM.
`COC(=O)C(CCCc1ccccc1)(Cc1ccc(NS(=O)(=O)O)cc1)C(=O)OC`: the IC50 in [2] was 2300 nM; in experiment [3], 7700 nM; in experiment [4] it was more than 500000 nM; in experiment [5] it was 409000 nM; in [6], more than 500000 nM; in experiment [7], 93000 nM. Also, the half-maximal inhibitory concentration (IC50) in experiment [8] is 15300 nM; in [9], more than 500000 nM; in experiment [10], 29000 nM; in [1] it was 150 nM.
With `COC(=O)C(COCc1ccccc1)(Cc1ccc(NS(=O)(=O)O)cc1)C(=O)OC`, the concentration for half-maximal inhibition (IC50) in experiment [1] was determined as 270 nM.
On the same count and under the same terms, the value for `Cc1noc(C(CCCc2ccccc2)(Cc2ccc(NS(=O)(=O)O)cc2)c2nc(C)no2)n1` was 70 nM.
`COC(=O)c1ccc(CC(Cc2ccc(NS(=O)(=O)O)cc2)(C(=O)OC)C(=O)OC)cc1` returned an IC50 in experiment [1] of 410 nM.

The IC50 is the concentration that inhibits the measured activity by half. Read a low IC50 as greater potency in that assay.
